Results reported in patent publication US12540120B2, “Herbicidal compounds” (SYNGENTA CROP PROTECTION AG, priority 2019, dated 2026).

Legend:
Type in all cases: in vivo
[1] = test system: Abutilon theophrasti (ABUTH); experiment: B3 Post-Emergence Efficacy—Test 3; conditions: post-emergence application, 250 g/ha, evaluated after 13 days (Test 3)
Method: (§1) B3 Post-Emergence Efficacy—Test 3 Seeds of a variety of test species are sown in standard soil in pots:—Amaranthus retoflexus (AMARE), Setaria faberi (SETFA), Echinochloa crus-galli (ECHCG), Ipomoea hederacea (IPOHE), Zea Mays (ZEAMX), Abutilon theophrasti (ABUTH). After 8 days cultivation (post-emergence) under controlled conditions in a glasshouse (at 24/16° C., day/night; 14 hours light; 65% humidity), the plants are sprayed with an aqueous spray solution derived from the formulation of the technical active ingredient in acetone/water (50:50) solution containing 0.5% Tween 20 (polyoxyethylene sorbitan monolaurate, CAS RN 9005-64-5). Compounds are applied at 250 g/ha. The test plants are then grown in a glasshouse under controlled conditions in a glasshouse (at 24/16° C., day/night; 14 hours light; 65% humidity) and watered twice daily. After 13 days, the test is evaluated for the percentage damage caused to the plant. The biological activities are assessed on a five point scale (5=80-100%; 4=60-79%; 3=40-59%; 2=20-39%; 1=0-19%). A blank value in the table is indicative that the compound was not tested on that species.

[2] = test system: Amaranthus retoflexus (AMARE); experiment: B3 Post-Emergence Efficacy—Test 3; conditions: post-emergence application, 250 g/ha, evaluated after 13 days (Test 3)
Method: as §1

[3] = test system: Echinochloa crus-galli (ECHCG); experiment: B3 Post-Emergence Efficacy—Test 3; conditions: post-emergence application, 250 g/ha, evaluated after 13 days (Test 3)
Method: as §1

[4] = test system: Ipomoea hederacea (IPOHE); experiment: B3 Post-Emergence Efficacy—Test 3; conditions: post-emergence application, 250 g/ha, evaluated after 13 days (Test 3)
Method: as §1

Setaria faberi (SETFA) [5] = experiment: B3 Post-Emergence Efficacy—Test 3; conditions: post-emergence application, 250 g/ha, evaluated after 13 days (Test 3)
Method: as §1

Zea Mays (ZEAMX) [6] = experiment: B3 Post-Emergence Efficacy—Test 3; conditions: post-emergence application, 250 g/ha, evaluated after 13 days (Test 3)
Method: as §1

[7] = test system: Abutilon theophrasti (ABUTH); experiment: B6 Pre-Emergence Efficacy—Test 3; conditions: pre-emergence application, 250 g/ha, evaluated after 13 days (Test 3)
Method: (§2) B6 Pre-Emergence Efficacy—Test 3 Seeds of a variety of test species were sown in standard soil in pots: Amaranthus retoflexus (AMARE), Setaria faberi (SETFA), Echinochloa crus-galli (ECHCG), Ipomoea hederacea (IPOHE), Zea Mays (ZEAMX), Abutilon theophrasti (ABUTH). After cultivation for one day (pre-emergence) under controlled conditions in a glasshouse (at 24/16° C., day/night; 14 hours light; 65% humidity), the plants were sprayed with an aqueous spray solution derived from the formulation of the technical active ingredient in acetone/water (50:50) solution containing 0.5% Tween 20 (polyoxyethelyene sorbitan monolaurate, CAS RN 9005-64-5). Compounds are applied at 250 g/ha. The test plants were then grown in a glasshouse under controlled conditions (at 24/16° C., day/night; 14 hours light; 65% humidity) and watered twice daily. After 13 days, the test is evaluated for the percentage damage caused to the plant. The biological activities are assessed on a five point scale (5=80-100%; 4=60-79%; 3=40-59%; 2=20-39%; 1=0-19%). A blank value in the table is indicative that the compound was not tested on that species.

[8] = test system: Amaranthus retoflexus (AMARE); experiment: B6 Pre-Emergence Efficacy—Test 3; conditions: pre-emergence application, 250 g/ha, evaluated after 13 days (Test 3)
Method: as §2

[9] = test system: Echinochloa crus-galli (ECHCG); experiment: B6 Pre-Emergence Efficacy—Test 3; conditions: pre-emergence application, 250 g/ha, evaluated after 13 days (Test 3)
Method: as §2

[10] = test system: Ipomoea hederacea (IPOHE); experiment: B6 Pre-Emergence Efficacy—Test 3; conditions: pre-emergence application, 250 g/ha, evaluated after 13 days (Test 3)
Method: as §2

Setaria faberi (SETFA) [11] = experiment: B6 Pre-Emergence Efficacy—Test 3; conditions: pre-emergence application, 250 g/ha, evaluated after 13 days (Test 3)
Method: as §2

Zea Mays (ZEAMX) [12] = experiment: B6 Pre-Emergence Efficacy—Test 3; conditions: pre-emergence application, 250 g/ha, evaluated after 13 days (Test 3)
Method: as §2

Cc1nn(C)c(=O)c(-c2c(F)ccc(Cl)c2CCc2ccc(C3CCC(C)O3)cc2)c1O (stereo not shown) [Compound A-1.380]
0: percentage damage caused to the plant, five point scale, ECHCG [9]
2 (2=20-39%): percentage damage caused to the plant, five point scale, ZEAMX (Zea Mays (ZEAMX) [6]) | percentage damage caused to the plant, five point scale, ZEAMX (Zea Mays (ZEAMX) [12])
3 (3=40-59%): percentage damage caused to the plant, five point scale, ABUTH [1] | percentage damage caused to the plant, five point scale, IPOHE [4] | percentage damage caused to the plant, five point scale, SETFA (Setaria faberi (SETFA) [5])
4 (4=60-79%): percentage damage caused to the plant, five point scale, AMARE [2] | percentage damage caused to the plant, five point scale, ABUTH [7] | percentage damage caused to the plant, five point scale, IPOHE [10]
5 (5=80-100%): percentage damage caused to the plant, five point scale, AMARE [8]
1 (1=0-19%): percentage damage caused to the plant, five point scale, ECHCG [3] | percentage damage caused to the plant, five point scale, SETFA (Setaria faberi (SETFA) [11])

Cc1nn(C)c(=O)c(-c2c(F)ccc(Cl)c2CCc2ccc(-c3ncco3)cc2)c1O [Compound A-1.382]
5 (5=80-100%): percentage damage caused to the plant, five point scale, IPOHE [4] | percentage damage caused to the plant, five point scale, ZEAMX (Zea Mays (ZEAMX) [6]) | percentage damage caused to the plant, five point scale, AMARE [8] | percentage damage caused to the plant, five point scale, ECHCG [9] | percentage damage caused to the plant, five point scale, IPOHE [10] | percentage damage caused to the plant, five point scale, SETFA (Setaria faberi (SETFA) [11])
4 (4=60-79%): percentage damage caused to the plant, five point scale, ABUTH [1] | percentage damage caused to the plant, five point scale, AMARE [2] | percentage damage caused to the plant, five point scale, ECHCG [3] | percentage damage caused to the plant, five point scale, SETFA (Setaria faberi (SETFA) [5]) | percentage damage caused to the plant, five point scale, ABUTH [7] | percentage damage caused to the plant, five point scale, ZEAMX (Zea Mays (ZEAMX) [12])

Cc1nn(C)c(=O)c(-c2c(F)ccc(C3CC3)c2CCc2ccnc(F)c2)c1O [Compound C-1.013, 4-[3-cyclopropyl-6-fluoro-2-[2-(2-fluoro-4-pyridyl)ethyl]phenyl]-5-hydroxy-2,6-dimethyl-pyridazin-3-one]
5 (5=80-100%): percentage damage caused to the plant, five point scale, AMARE [2] | percentage damage caused to the plant, five point scale, ECHCG [3] | percentage damage caused to the plant, five point scale, ABUTH [7] | percentage damage caused to the plant, five point scale, AMARE [8] | percentage damage caused to the plant, five point scale, ECHCG [9] | percentage damage caused to the plant, five point scale, IPOHE [10] | percentage damage caused to the plant, five point scale, SETFA (Setaria faberi (SETFA) [11])
4 (4=60-79%): percentage damage caused to the plant, five point scale, ABUTH [1] | percentage damage caused to the plant, five point scale, IPOHE [4] | percentage damage caused to the plant, five point scale, SETFA (Setaria faberi (SETFA) [5]) | percentage damage caused to the plant, five point scale, ZEAMX (Zea Mays (ZEAMX) [6]) | percentage damage caused to the plant, five point scale, ZEAMX (Zea Mays (ZEAMX) [12])

Cc1nn(C)c(=O)c(-c2c(F)ccc(Cl)c2CCc2cnn(C3CC3)c2)c1O [Compound A-1.387]
4 (4=60-79%): percentage damage caused to the plant, five point scale, ABUTH [1] | percentage damage caused to the plant, five point scale, AMARE [2] | percentage damage caused to the plant, five point scale, ECHCG [3] | percentage damage caused to the plant, five point scale, IPOHE [4] | percentage damage caused to the plant, five point scale, SETFA (Setaria faberi (SETFA) [5]) | percentage damage caused to the plant, five point scale, ZEAMX (Zea Mays (ZEAMX) [6]) | percentage damage caused to the plant, five point scale, ABUTH [7] | percentage damage caused to the plant, five point scale, ZEAMX (Zea Mays (ZEAMX) [12])
5 (5=80-100%): percentage damage caused to the plant, five point scale, AMARE [8] | percentage damage caused to the plant, five point scale, ECHCG [9] | percentage damage caused to the plant, five point scale, IPOHE [10] | percentage damage caused to the plant, five point scale, SETFA (Setaria faberi (SETFA) [11])

Cc1ccc(-c2ccc(CCc3c(Cl)ccc(F)c3-c3c(O)c(C)nn(C)c3=O)cc2)o1 [Compound A-1.381]
3 (3=40-59%): percentage damage caused to the plant, five point scale, ABUTH [1] | percentage damage caused to the plant, five point scale, AMARE [8] | percentage damage caused to the plant, five point scale, IPOHE [10]
2 (2=20-39%): percentage damage caused to the plant, five point scale, SETFA (Setaria faberi (SETFA) [5])
0: percentage damage caused to the plant, five point scale, ECHCG [3] | percentage damage caused to the plant, five point scale, ECHCG [9] | percentage damage caused to the plant, five point scale, SETFA (Setaria faberi (SETFA) [11])
1 (1=0-19%): percentage damage caused to the plant, five point scale, ZEAMX (Zea Mays (ZEAMX) [6]) | percentage damage caused to the plant, five point scale, ABUTH [7] | percentage damage caused to the plant, five point scale, ZEAMX (Zea Mays (ZEAMX) [12])
4 (4=60-79%): percentage damage caused to the plant, five point scale, AMARE [2] | percentage damage caused to the plant, five point scale, IPOHE [4]

Cc1nn(C)c(=O)c(-c2c(F)ccc(Cl)c2CCc2cnn(-c3ccccc3)c2)c1O [Compound A-1.386]
2 (2=20-39%): percentage damage caused to the plant, five point scale, ABUTH [7] | percentage damage caused to the plant, five point scale, AMARE [8] | percentage damage caused to the plant, five point scale, ZEAMX (Zea Mays (ZEAMX) [12])
5 (5=80-100%): percentage damage caused to the plant, five point scale, ECHCG [9] | percentage damage caused to the plant, five point scale, SETFA (Setaria faberi (SETFA) [11])
4 (4=60-79%): percentage damage caused to the plant, five point scale, AMARE [2] | percentage damage caused to the plant, five point scale, ECHCG [3] | percentage damage caused to the plant, five point scale, IPOHE [4] | percentage damage caused to the plant, five point scale, SETFA (Setaria faberi (SETFA) [5]) | percentage damage caused to the plant, five point scale, ZEAMX (Zea Mays (ZEAMX) [6]) | percentage damage caused to the plant, five point scale, IPOHE [10]
3 (3=40-59%): percentage damage caused to the plant, five point scale, ABUTH [1]

CNS(=O)(=O)c1ccc(CCc2c(Cl)ccc(F)c2-c2c(O)c(C)nn(C)c2=O)cc1 [Compound A-1.390]
4 (4=60-79%): percentage damage caused to the plant, five point scale, ABUTH [1] | percentage damage caused to the plant, five point scale, IPOHE [4]
5 (5=80-100%): percentage damage caused to the plant, five point scale, AMARE [2] | percentage damage caused to the plant, five point scale, SETFA (Setaria faberi (SETFA) [5]) | percentage damage caused to the plant, five point scale, ABUTH [7] | percentage damage caused to the plant, five point scale, AMARE [8] | percentage damage caused to the plant, five point scale, IPOHE [10] | percentage damage caused to the plant, five point scale, SETFA (Setaria faberi (SETFA) [11])
1 (1=0-19%): percentage damage caused to the plant, five point scale, ZEAMX (Zea Mays (ZEAMX) [6]) | percentage damage caused to the plant, five point scale, ZEAMX (Zea Mays (ZEAMX) [12])

Cc1nn(C)c(=O)c(-c2c(F)ccc(Cl)c2CCc2ccc(C(N)=O)cc2)c1O [Compound A-1.392]
4 (4=60-79%): percentage damage caused to the plant, five point scale, ABUTH [1]
2 (2=20-39%): percentage damage caused to the plant, five point scale, ZEAMX (Zea Mays (ZEAMX) [6]) | percentage damage caused to the plant, five point scale, ZEAMX (Zea Mays (ZEAMX) [12])
3 (3=40-59%): percentage damage caused to the plant, five point scale, IPOHE [4]
5 (5=80-100%): percentage damage caused to the plant, five point scale, AMARE [2] | percentage damage caused to the plant, five point scale, SETFA (Setaria faberi (SETFA) [5]) | percentage damage caused to the plant, five point scale, ABUTH [7] | percentage damage caused to the plant, five point scale, AMARE [8] | percentage damage caused to the plant, five point scale, ECHCG [9] | percentage damage caused to the plant, five point scale, IPOHE [10] | percentage damage caused to the plant, five point scale, SETFA (Setaria faberi (SETFA) [11])

Cc1nn(C)c(=O)c(-c2c(F)ccc(Cl)c2CCc2ccc(S(N)(=O)=O)cc2)c1O [Compound A-1.391]
0: percentage damage caused to the plant, five point scale, ZEAMX (Zea Mays (ZEAMX) [12])
3 (3=40-59%): percentage damage caused to the plant, five point scale, IPOHE [4]
1 (1=0-19%): percentage damage caused to the plant, five point scale, ZEAMX (Zea Mays (ZEAMX) [6])
4 (4=60-79%): percentage damage caused to the plant, five point scale, AMARE [2] | percentage damage caused to the plant, five point scale, SETFA (Setaria faberi (SETFA) [5])
2 (2=20-39%): percentage damage caused to the plant, five point scale, ABUTH [1] | percentage damage caused to the plant, five point scale, ABUTH [7] | percentage damage caused to the plant, five point scale, IPOHE [10]
5 (5=80-100%): percentage damage caused to the plant, five point scale, AMARE [8] | percentage damage caused to the plant, five point scale, SETFA (Setaria faberi (SETFA) [11])
